The values that follow come from patent US6399649B1, “Compositions and methods for the treatment of chronic lymphocytic leukemia” (Boston Medical Center Corporation, priority 1998, dated 2002).

For test [1], the system named is CLL cells. Briefly: Hoechst 33342 apoptosis assay, CLL cells. It is filed as cell-based, human. To be noted: for percentage of apoptotic cells: three days. How it is done:
(§1) Hoechst 33342 was dissolved in water and frozen at 33 mg/mL at −20° C. One million cells/well were incubated in duplicate or triplicate in 48 well tissue culture plates (Costar, Cambridge, Mass.) with or without drug treatment for […] in 1 mL of culture media. Cells were transferred to 12×75 mm polystyrene Falcon® 2054 FACS tubes (Becton Dickinson Labware, Lincoln Park, N.J.) and incubated for ten minutes at 37° C. with Hoechst 33342 at a final concentration of […]. 23 Cells were stored on ice until analysis on a FACS Vantage flow cytometer (Becton Dickinson, San Jose, Calif.). Hoechst 33342 dye fluorescence was excited with a UV laser and detected using a 450 bandpass filter; Data was analyzed using Cellquest software (Becton Dickinson, San Jose, Calif.).
As a more quantitative analysis of CLL apoptosis, we utilized a flow cytometry method in which apoptotic cells are distinguished both by their reduced size (FSC) and their increased uptake of the lipophilic UV fluorescent dye Hoechst 33342 (FL-4) when the intact, heterogeneous cell population is incubated with a low concentration of the dye (0.25 ug/mL) for 10 minutes at 37° C. Specifically, cells were cultured for 72 hours in media (1), 1uMol/L rolipram (2), 40 uMol/L forskolin (3) or a combination of the two drugs (FIG. 6). The abcissa reflects forward light scatter and the ordinate Hoechst 33342 fluorescence. Apoptotic cells are characterized by reduced forward light scatter and increased Hoechst 33342 fluorescence. Previous reports of cAMP induced lymphoid apoptosis have noted that this form of programmed cell death may take 48 to 72 hours to develop maximally. […] CLL cells were cultured for 72 hours in one mL of media with the indicated concentration of rolipram with (black bars) or without (stippled bars) the addition of 40 uMol/L forskolin.

In test [2] the test system is Bal-17 cells. Briefly: cAMP assay (RIA) in Bal-17 cells. Particulars: basal and forskolin-stimulated (data not shown). It counts as cell-based, murine. (cAMP levels reflect the balance of adenylyl cyclase and phosphodiesterase activity.)
In test [3] the target is PDE1 enzymes. Particulars: cited from earlier work.
Test [4] deals with CLL cells. The test is described as follows: cAMP assay (RIA) in CLL cells. It is filed as cell-based, human. To be noted: 30 uMol/L with forskolin; two hours. How it is done: One million cells in 1 mL were treated for two hours with or without drugs. 0.8 mL of cells were pelleted by spinning at 4,000 rpm (RCF=1,310) in microcentrifuge tube. After discarding 0.7 mL, 400 uL of ethanol was added, vortexed and left on ice for five minutes. Particulate cell debris was removed by centrifugation at 14,000 rpm (RCF=16,000). The supernatant was stored at −20° C. until the day of assay, at which time it was dried in a Speedivac (Savant, Farmingdale, N.Y.) to a volume of 50 uL. After ten-fold dilution in 10 mMol/L Tris pH 8.0, 1 mMol/L EDTA, the cAMP sample was analyzed for cAMP concentration using a cAMP RIA kit (NEN, Boston, Mass.) according to the manufacturer's instructions using the nonacetylated protocol.
In this example, it was determined what role type 1 and type 4 PDE activity might play in the catabolism of cyclic nucleotides in CLL cells. cAMP levels were measured after culturing leukemic cells with varying concentrations of PDE-isoform specific inhibitors, either alone or in conjunction with an activator of adenylate cyclase, the diterpene forskolin. Specifically, one million freshly isolated cells were incubated with the indicated drugs for two hours prior to analysis of cAMP in cell lysates using a radioimmunoassay. The results are shown in FIG. 4 and the data are the mean of three individually assayed culture wells.

In test [5] the test system is IL-2 cultured WMC (>90% CD3+ T cells). Briefly: Hoechst 33342 apoptosis assay, IL-2 cultured WMC. It counts as cell-based, human. Particulars: 72 hours, comparable treatments.
Test [6] concerns magnetic bead purified CD19+B cells. Briefly: Hoechst 33342 apoptosis assay, CD19+ B cells. It is filed as cell-based, human. To be noted: 72 hours. How it is done: as §1
This example describes the effect of PDE4 inhibition on normal B and T cells. […] Specifically, one million WMC were cultured with the indicated concentration of rolipram with or without the addition of 40 uMol/L forskolin for 72 hours in the presence of 2 units/mL IL-2. Apoptosis was determined by Hoechst 33342 flow cytometry. […] In contrast, magnetic bead purified CD19+B cells were sensitive to rolipram, although the increment in apoptosis observed was superimposed on a high basal apoptosis rate that has previously been reported in cultured human B cells. Given that crosslinking of cell surface immunoglobulin on resting B cells has been reported to reduce basal and forskolin-induced apoptosis in culture, we also stimulated CD19+ cells with a polyclonal Fab′2 anti-IgM/IgG reagent 30 minutes prior to the addition of the phosphodiesterase inhibitor.

Test [7] relates to CLL cells. To be noted: cited from earlier work.
The mark [8] stands for this setting: Pt. 3, Rai IV, Drug Res. Ch, CH, basal 38, 10 uMol/L rolipram, 40 uMol/L forskolin or 100 uMol/L dbcAMP.
[9] abbreviates: Pt. 6, Rai IV, Drug Res. Ch, basal 17 ± 4, 10 uMol/L rolipram, 40 uMol/L forskolin or 100 uMol/L dbcAMP.
Setting [10] is: Pt. 7, Rai II, Drug Res. Ch, basal 13 ± 2, 10 uMol/L rolipram, 40 uMol/L forskolin or 100 uMol/L dbcAMP.
The mark [11] stands for this setting: Pt. 9, Rai IV, Drug Res. Ch, Cy, Fl, basal 4 ± 0, 10 uMol/L rolipram, 40 uMol/L forskolin or 100 uMol/L dbcAMP.
Setting [12] is: Pt. 11, Rai 0, basal 24 ± 4, 10 uMol/L rolipram, 40 uMol/L forskolin or 100 uMol/L dbcAMP.
Setting [13] is: Pt. 14 (significant population of cells with prolymphocyte morphology), Rai I, basal 13 ± 0, 10 uMol/L rolipram, 40 uMol/L forskolin or 100 uMol/L dbcAMP.

As to `CCOC(=O)C1=C[C@]2(CC)CCCN3CCc4c(n1c1ccccc41)[C@@H]32` [vinpocetine], in test [1] (10 or 30 uMol/L), the CLL cell apoptosis entry is listed as “underwent apoptosis”. For the same compound, the “time of peak apoptosis” value in test [1] (CLL cells (data not shown)) is no more than 24 h. Further, the “cAMP levels in Bal-17 cells” value in test [2] is “reduced both basal and forskolin-stimulated cAMP levels”. Besides, in test [3], the IC50 (usually the concentration at which inhibition is half-maximal) was 21 µM. In addition, the “CLL cell cAMP” value in test [4] is “not augmented above levels induced by forskolin alone”.

As for `CCCC(=O)Nc1ncnc2c1ncn2[C@@H]1O[C@@H]2COP(=O)(O)O[C@H]2[C@H]1OC(=O)CCC` [dbcAMP, dibutyryl cAMP], the “percentage of apoptotic cells relative to control cells” value in test [1] (CLL cells, 72 hours, 10 uMol/L rolipram, 40 uMol/L forskolin, dbcAMP greater than or equal to 30 mMol/L) was “increased significantly”; in test [5], “did not significantly increase”; in test [6] (anti-Ig stimulated B cells, comparable treatments), “did not significantly increase”; in test [6] (resting B cells, 10 uMol/L rolipram, 40 uMol/L forskolin, dbcAMP greater than or equal to 30 mMol/L), “increased significantly”. Further, the “percentage of apoptotic cells” value in test [1] (setting [8]) is 71 ± 3%; in test [1] (setting [9]) it was 39 ± 4%; in test [1] (setting [10]) it was 32 ± 4%; in test [1] (setting [11]) it was 46 ± 1%; in test [1] (setting [12]) it was 39 ± 2%; in test [1] (Pt. 13, Rai 0, basal 2 ± 0, 10 uMol/L rolipram, 40 uMol/L forskolin or 100 uMol/L dbcAMP) it was 23 ± 6%. Further, the “percentage of apoptotic cells” value in test [1] (setting [13]) is given as 22 ± 0%.

Regarding `C=C[C@@]1(C)CC(=O)[C@]2(O)[C@@]3(C)[C@@H](O)CCC(C)(C)[C@@H]3[C@H](O)[C@H](OC(C)=O)[C@@]2(C)O1` [forskolin], the “percentage of apoptotic cells” value in test [1] (Pt. 2, Rai IV, Drug Res. Ch, Cy, basal 18 ± 2, 10 uMol/L rolipram, 40 uMol/L forskolin or 100 uMol/L dbcAMP) is given as 46%; in test [1] (setting [8]), 59 ± 0%; in test [1] (setting [9]), 30 ± 4%; in test [1] (setting [10]) it was 32 ± 0%; in test [1] (Pt. 8, Rai 0, basal 5, 10 uMol/L rolipram, 40 uMol/L forskolin), 22%; in test [1] (setting [11]), 17 ± 4%. In addition, the “percentage of apoptotic cells” value is reported as 26 ± 4% in test [1] (Pt. 10, Rai I, basal 11, 10 uMol/L rolipram, 40 uMol/L forskolin or 100 uMol/L dbcAMP); 40 ± 3% in test [1] (setting [12]); 43 ± 1% in test [1] (Pt. 12, Rai IV, Drug Res. Ch, Fl, 2C, basal 0 ± 4, 10 uMol/L rolipram, 40 uMol/L forskolin or 100 uMol/L dbcAMP); 19 ± 3% in test [1] (setting [13]).

As to `Cn1c(=O)c2[nH]cnc2n(C)c1=O` [Theophylline], the “apoptosis in CLL cells” value in test [7] is given as “induces apoptosis”.
